Data set [1] in a line: Plasma PK of d-MPH after single oral dose administrations of 240, 360 and 480 mg SDX Cl.
In data set [2] the test system is Patients with IH. Conditions: cited from earlier work.

The CL/F is the apparent clearance, not corrected for the fraction that reaches the circulation. In the case of `COC(=O)[C@H](c1ccccc1)[C@H]1CCCCN1C(=O)OC[n+]1cccc(C(=O)N[C@@H](CO)C(=O)O)c1.[Cl-]` [SDX Cl, 3-[[[(1S)-1-carboxy-2-hydroxyethyl]amino]carbonyl]-1-[[[[(2R)-2-[(1R)-2-methoxy-2-oxo-1-phenylethyl]-1-piperidinyl]carbonyl]oxy]methyl]pyridinium chloride], the CL/F worked out at 384 L/h in data set [1] (single oral dose 240 mg SDX Cl, N = 14); 387 L/h in data set [1] (single oral dose 360 mg SDX Cl, N = 10); 297 L/h in data set [1] (single oral dose 480 mg SDX Cl, N = 7).
Regarding `O=C(O)CCCO` [oxybate], in data set [2] (in vivo), the TEAE anxiety is reported as 11%, the TEAE dizziness is 12%, the TEAE headache was 18% and the TEAE nausea is 22 % of subjects. Moreover, in data set [2] (in vivo), the TEAE vomiting is recorded as 11%. Moreover, in data set [2] (oxybate-treated patients), the “Patients reporting worsening symptoms (PGI-C scale)” value is recorded as 21%.

The values are drawn from patent publication US20250375436A1, “SERDEXMETHYLPHENIDATE FOR TREATMENT OF IDIOPATHIC HYPERSOMNIA” (ZEVRA THERAPEUTICS, INC., priority 2024, published 2025).
